Data reported in publication PMC4571936, “Pre-steady-state Kinetic Analysis of a Family D DNA Polymerase from Thermococcus sp. 9°N Reveals Mechanisms for Archaeal Genomic Replication and Maintenance” (The Journal of Biological Chemistry, 2015).
Values belong to the compound of their own block, whether it stands above or below them.

Experiments:
[1] = biological target: T1, 9°N polD^− (exonuclease-deficient polD mutant H554A); test: pre-steady-state single-turnover nucleotide incorporation, rapid chemical quench, capillary electrophoresis; assay type: biochemical, Thermococcus sp. 9°N; details: apparent Kd, correct pairing, 2 mM MgSO4, ThermoPol buffer pH 8.8 (at 25 °C), 60 °C
T1 construct: gene polC; recombinant purified heterodimer of large and small subunit, ~1:1; with DNA polymerase II small subunit

[2] = biological target: T1, 9°N polD^− (exonuclease-deficient polD mutant H554A); test: pre-steady-state single-turnover nucleotide incorporation, rapid chemical quench, denaturing gel electrophoresis; assay type: biochemical, Thermococcus sp. 9°N; details: apparent Kd; correct pairing, template G with 5'-FAM 50-mer primer; 2 mM MgSO4, ThermoPol buffer pH 8.8 (at 25 °C), 60 °C

- Kd ([1]; template T with 5'-FAM 50-mer primer): 2.5 ± 0.1 µM
Compound: Nc1ncnc2c1ncn2[C@H]1C[C@H](O)[C@@H](COP(=O)(O)OP(=O)(O)OP(=O)(O)O)O1 [dATP]

- Kd [2]: 1.7 ± 0.1 µM
Compound: Nc1ccn([C@H]2C[C@H](O)[C@@H](COP(=O)(O)OP(=O)(O)OP(=O)(O)O)O2)c(=O)n1 [dCTP]

- Kd ([1]; template C with 5'-FAM 50-mer primer): 0.9 ± 0.3 µM
Compound: Nc1nc2c(ncn2[C@H]2C[C@H](O)[C@@H](COP(=O)(O)OP(=O)(O)OP(=O)(O)O)O2)c(=O)[nH]1 [dGTP]

- Kd ([1]; A Template-1 with 5'-FAM 50-mer primer): 1.6 ± 0.1 µM
Compound: Cc1cn([C@H]2C[C@H](O)[C@@H](COP(=O)(O)OP(=O)(O)OP(=O)(O)O)O2)c(=O)[nH]c1=O [dTTP]
